The structures appear in SMILES notation.

This experiment deals with T1, BACE1 (Homo sapiens, UniProt P56817).
T1 construct: endogenous in cells; host or cells: HEK293 APP cells
T1 sequence (P56817 46-501): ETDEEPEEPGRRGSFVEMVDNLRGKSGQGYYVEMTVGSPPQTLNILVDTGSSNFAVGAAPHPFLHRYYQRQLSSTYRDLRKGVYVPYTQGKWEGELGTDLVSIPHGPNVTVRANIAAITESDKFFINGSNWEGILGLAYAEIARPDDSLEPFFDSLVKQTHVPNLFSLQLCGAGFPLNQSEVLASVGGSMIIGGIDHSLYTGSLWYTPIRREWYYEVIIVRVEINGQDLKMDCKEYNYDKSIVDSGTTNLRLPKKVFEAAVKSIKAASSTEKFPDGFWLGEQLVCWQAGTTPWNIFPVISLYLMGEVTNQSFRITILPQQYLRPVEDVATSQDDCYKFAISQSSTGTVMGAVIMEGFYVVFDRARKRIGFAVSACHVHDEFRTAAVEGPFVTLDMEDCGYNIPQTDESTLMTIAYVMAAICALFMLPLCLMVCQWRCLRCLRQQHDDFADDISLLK
Description: Cellular Aβ-lowering assay (Abeta 40 AlphaLISA, HEK293 APP cells). Format: cell-based. Particulars: 18-20 hrs incubation, Aβ 40 in culture supernatant, read-out: BACE1 cell act. Aβ40 IC50. How it is done: Cellular Aβ-Lowering Assay:
The Abeta 40 AlphaLISA Assay can be used. The HEK293 APP cells were seeded in 96 well Microtiter plates in cell culture medium (Iscove's, plus 10% (v/v) fetal bovine serum, penicillin/streptomycin) to about 80% confluency and the compounds were added at a 3× concentration in ⅓ volume of culture medium (final DMSO concentration was kept at 1% v/v). After 18-20 hrs incubation at 37° C. and 5% CO2 in a humidified incubator, the culture supernatants were harvested for the determination of Aβ 40 concentrations using Perkin-Elmer Human Amyloid beta 1-40 (high specificity) Kit (Cat#AL275C).
In a Perkin-Elmer White Optiplate-384 (Cat#6007290), 2 ul culture supernatants were combined with 2 μl of a 10× AlphaLISA Anti-hAβAcceptor beads + Biotinylated Antibody Anti-Aβ 1-40 Mix (50 μg/mL/5 nM). After 1 hour room temperature incubation, 16 μl of a 1.25× preparation of Streptavidin (SA) Donor beads (25 μg/mL) were added and incubated for 30 minutes in the Dark. Light Emission at 615 nm was then recorded using EnVision-Alpha Reader. Levels of Aβ 40 in the culture supernatants were calculated as percentage of maximum signal (cells treated with 1% DMSO without inhibitor). The IC50 values were calculated using the Excel XLfit software.
(In Alpha technology, singlet oxygen from a donor bead excites a nearby acceptor bead.)
The term IC50 denotes the point on the concentration scale where inhibition reaches its midpoint. With `[2H]C([2H])([2H])N=[S@@]1(=O)C[C@@](C)(c2cc(-c3cc(-c4ncc(CC)cn4)no3)ccc2F)N=C(N)C1(C)C` [Example 26, (1R,3R)-3-[5-[3-(5-ethylpyrimidin-2-yl)isoxazol-5-yl]-2-fluoro-phenyl]-3,6,6-trimethyl-1-oxo-1-(trideuteriomethylimino)-2H-1,4-thiazin-5-amine 2,2,2-trifluoroacetate], the IC50 came to 37 nM. For the compound `CN=[S@]1(=O)C[C@@](CF)(c2cc(-c3cc(-c4cnc(OC)cn4)no3)ccc2F)N=C(N)C1(C)C` [Example 2, (1S,3S)-5-amino-3-(2-fluoro-5-(3-(5-methoxypyrazin-2-yl)isoxazol-5-yl)phenyl)-3-(fluoromethyl)-6,6-dimethyl-1-(methylimino)-3,6-dihydro-2H-1,4-thiazine 1-oxide 2,2,2-trifluoroacetate], the IC50 worked out at 141 nM. As to `[2H]C([2H])([2H])N=[S@@]1(=O)C[C@@](C)(c2cc(-c3cc(-c4ncc(OCC(F)(F)C(F)F)cn4)no3)ccc2F)N=C(N)C1(C)C` [Example 25, (1R,3R)-3-[2-fluoro-5-[3-[5-(2,2,3,3-tetrafluoropropoxy)pyrimidin-2-yl]isoxazol-5-yl]phenyl]-3,6,6-trimethyl-1-oxo-1-(trideuteriomethylimino)-2H-1,4-thiazin-5-amine 2,2,2-trifluoroacetate], the IC50 turned out to be 13 nM.

Regarding `CC1(C)C(N)=N[C@](C)(c2cc(-c3cc(-c4ncc(Cl)cn4)no3)ccc2F)C[S@]1(=O)=NC1CC1` [Example 34, (1R,3R)-3-[5-[3-(5-chloropyrimidin-2-yl)isoxazol-5-yl]-2-fluoro-phenyl]-1-cyclopropylimino-3,6,6-trimethyl-1-oxo-2H-1,4-thiazin-5-amine 2,2,2-trifluoroacetate], the 50% inhibitory concentration (IC50) was 13 nM. For `CN=[S@@]1(=O)C[C@@](CF)(c2cc(-c3cc(-c4ncc(OC)cn4)no3)ccc2F)N=C(N)C1(C)C` [Example 17, (1R,3S)-3-[2-fluoro-5-[3-(5-methoxypyrimidin-2-yl)isoxazol-5-yl]phenyl]-3-(fluoromethyl)-6,6-dimethyl-1-methylimino-1-oxo-2H-1,4-thiazin-5-amine], the IC50 was found to be 119 nM. In the case of `COc1cnc(-c2cc(-c3ccc(F)c([C@]4(C)C[S@@](=O)(=NCC(F)(F)F)C(C)(C)C(N)=N4)c3)on2)cn1` [Example 37, (1S,3R)-5-amino-3-(2-fluoro-5-(3-(5-methoxypyrazin-2-yl)isoxazol-5-yl)phenyl)-3,6,6-trimethyl-1-((2,2,2-trifluoroethyl)imino)-3,6-dihydro-2H-1,4-thiazine 1-oxide 2,2,2-trifluoroacetate], the IC50 was 6 nM. `CN=[S@@]1(=O)C[C@@](C)(c2cc(-c3cc(-c4ncc(OC)cn4)no3)ccc2F)N=C(N)C12CCCC2` [Example 29, (6R,8R)-10-amino-8-(2-fluoro-5-(3-(5-methoxypyrimidin-2-yl)isoxazol-5-yl)phenyl)-8-methyl-6-(methylimino)-6-thia-9-azaspiro[4.5]dec-9-ene 6-oxide 2,2,2-trifluoroacetate]: the IC50 came out at 20 nM. As for `CN=[S@]1(=O)C[C@@](C)(c2cc(-c3cc(-c4ncc(OCC(F)F)cn4)no3)ccc2F)N=C(N)C1(C)C` [Example 19, (1S,3R)-3-[5-[3-[5-(2,2-difluoroethoxy)pyrimidin-2-yl]isoxazol-5-yl]-2-fluoro-phenyl]-3,6,6-trimethyl-1-methylimino-1-oxo-2H-1,4-thiazin-5-amine], the 50% inhibitory concentration (IC50) was 27 nM.

For `CN=[S@]1(=O)C[C@@](C)(c2cc(-c3cc(-c4cnc(OCC(F)F)cn4)no3)ccc2F)N=C(N)C1(C)C` [Example 11, (1S,3R)-5-amino-3-(5-(3-(5-(2,2-difluoroethoxy)pyrazin-2-yl)isoxazol-5-yl)-2-fluorophenyl)-3,6,6-trimethyl-1-(methylimino)-3,6-dihydro-2H-1,4-thiazine 1-oxide 2,2,2-trifluoroacetate], the concentration for half-maximal inhibition (IC50) was found to be 51 nM. `COc1cnc(-c2cc(-c3ccc(F)c([C@]4(C)C[S@](=O)(=NCC(F)(F)F)C(C)(C)C(N)=N4)c3)on2)cn1` [Example 39, (1R,3R)-5-amino-3-(2-fluoro-5-(3-(5-methoxypyrazin-2-yl)isoxazol-5-yl)phenyl)-3,6,6-trimethyl-1-((2,2,2-trifluoroethyl)imino)-3,6-dihydro-2H-1,4-thiazine 1-oxide 2,2,2-trifluoroacetate]: the IC50 was 232 nM. To `CC1(C)C(N)=N[C@](C)(c2cc(-c3cc(-c4ncc(Cl)cn4)no3)ccc2F)C[S@@]1(=O)=NCC(F)(F)F` [Example 38, (1S,3R)-5-amino-3-(5-(3-(5-chloropyrimidin-2-yl)isoxazol-5-yl)-2-fluorophenyl)-3,6,6-trimethyl-1-((2,2,2-trifluoroethyl)imino)-3,6-dihydro-2H-1,4-thiazine 1-oxide 2,2,2-trifluoroacetate] belongs 13 nM; to `CN=[S@@]1(=O)C[C@@](CF)(c2cc(-c3cc(-c4ncc(Cl)cn4)no3)ccc2F)N=C(N)C1(C)C` [Example 3, (1R,3S)-5-amino-3-(5-(3-(5-chloropyrimidin-2-yl)isoxazol-5-yl)-2-fluorophenyl)-3-(fluoromethyl)-6,6-dimethyl-1-(methylimino)-3,6-dihydro-2H-1,4-thiazine 1-oxide 2,2,2-trifluoroacetate], 89 nM. Next, `CN=[S@@]1(=O)C[C@@](C)(c2cc(-c3cc(-c4ncc(C#N)cn4)no3)ccc2F)N=C(N)C1(C)C` [Example 8, 2-(5-(3-((1R,3R)-5-amino-3,6,6-trimethyl-1-(methylimino)-1-oxido-3,6-dihydro-2H-1,4-thiazin-3-yl)-4-fluorophenyl)isoxazol-3-yl)pyrimidine-5-carbonitrile 2,2,2-trifluoroacetate]: 22 nM.

Regarding `CN=[S@@]1(=O)C[C@@](C)(c2cc(-c3cn(-c4ccc(Cl)cn4)nn3)ccc2F)N=C(N)C1(C)C` [Example 9, (1R,3R)-5-amino-3-(5-(1-(5-chloropyridin-2-yl)-1H-1,2,3-triazol-4-yl)-2-fluorophenyl)-3,6,6-trimethyl-1-(methylimino)-3,6-dihydro-2H-1,4-thiazine 1-oxide 2,2,2-trifluoroacetate], the IC50 was 17 nM.

Regarding `CN=[S@@]1(=O)C[C@@](CF)(c2cc(-c3cc(-c4cnc(OCC(F)F)cn4)no3)ccc2F)N=C(N)C1(C)C` [Example 4, (1R,3S)-5-amino-3-(5-(3-(5-(2,2-difluoroethoxy)pyrazin-2-yl)isoxazol-5-yl)-2-fluorophenyl)-3-(fluoromethyl)-6,6-dimethyl-1-(methylimino)-3,6-dihydro-2H-1,4-thiazine 1-oxide 2,2,2-trifluoroacetate], the IC50 is 111 nM. As to `CN=[S@@]1(=O)C[C@@](C)(c2cc(-c3cc(-c4ncc(OC)cn4)no3)ccc2F)N=C(N)C1(C)C` [Example 20, (1R,3R)-5-amino-3-(2-fluoro-5-(3-(5-methoxypyrimidin-2-yl)isoxazol-5-yl)phenyl)-3,6,6-trimethyl-1-(methylimino)-3,6-dihydro-2H-1,4-thiazine 1-oxide], the IC50 worked out at 3 nM. With `CN=[S@@]1(=O)C[C@@](C)(c2cc(-c3cn(-c4ccc(C#N)cn4)nn3)ccc2F)N=C(N)C1(C)C` [Example 10, 6-(4-(3-((1R,3R)-5-amino-3,6,6-trimethyl-1-(methylimino)-1-oxido-3,6-dihydro-2H-1,4-thiazin-3-yl)-4-fluorophenyl)-1H-1,2,3-triazol-1-yl)nicotinonitrile 2,2,2-trifluoroacetate], the IC50 was determined as 20 nM.
